Measured values: US7732582B2, “Benzonaphthacene glycoside derivative and use thereof” (FUJIFILM Corporation, priority 2004, dated 2010)
In brackets after ≈: the same amount, converted by molar mass.

Key:
[1] = Solubility test in PBS(−) and PBS(+) solution; format: physicochemical; conditions: for Solubility PBS(+): PBS(+) solution (with CaCl2 and MgCl2); for Solubility PBS (−): PBS(−) solution, ultrasonicated at 30° C. 10 minutes, room temperature 2 hours, absorbance at 500 nm
Protocol: PBS tablets (ICN Bioohemi Inc., containing 0.02 g of KH2PO4, 0.115 g of Na2HPO4, 0.02 g of KCl and […] of NaCl per tablet) were dissolved in distilled water (100 ml), and the solution was autoclaved to obtain a PBS(−) solution. The PBS(−) solution (80 ml) was added with CaCl2 dihydrate (1 g/L, 10 ml) and MgCl2 hexahydrate (1 g/L, 10 ml) to prepare a PBS(+) solution.
Each test compound (1 mg) was added to the PBS(−) solution (300 μl), and the mixture was ultrasonicated at 30° C. for 10 minutes, and left at room temperature for 2 hours. Then, the mixture was centrifuged (12,000 rpm, 10 minutes), the supernatant was diluted 50 times with 0.01 N sodium hydroxide solution, and absorbance of the diluted mixture was measured at 500 nm.
The solubility in the PBS(+) solution can also be obtained in a similar manner.

C. albicans A9540 = assay: Antifungal activity test, agar dilution method; format: cell-based; conditions: for MIC C. albicans A9540: yeast morphology agar, pH 7.0, 30° C. for 2 days; for antifungal activity against C. albicans (in words): compared with control BMY28864
Protocol: (§1) Antifungal activity was measured by the agar dilution method utilizing the yeast morphology agar (0.15 M phosphate buffer, pH 7.0). Each microorganism was inoculated in an amount of 5 μl of 2×10^6 cells/ml solution per spot, and cultured at 30° C. for 2 days. The results were represented in terms of the minimum growth inhibitory concentration. As a control compound, BMY28864 was used.

C. neoformans ATCC 90112 = assay: Antifungal activity test, agar dilution method; format: cell-based; conditions: for MIC C. neoformans ATCC 90112: yeast morphology agar, pH 7.0, 30° C. for 2 days; for antifungal activity against C. neoformans (in words): compared with control BMY28864
Protocol: as §1

A. fumigatus IFO8866 = assay: Antifungal activity test, agar dilution method; format: cell-based; conditions: for MIC A. fumigatus IFO8866: yeast morphology agar, pH 7.0, 30° C. for 2 days; for antifungal activity against A. fumigatus (in words): compared with control BMY28864
Protocol: as §1

Mannan binding test = assay: Mannan binding test; design: species or system yeast; conditions: PBS(+); incubation at 30° C. for 24 hours; ~0: below detection limit (trace)
Protocol: A PBS(+) solution (100 μl) of mannan (Sigma, derived from yeast, 50 μg/ml) and a PBS(+) solution (100 μl) of each test compound (40 μg/ml) were mixed, and incubated at 30° C. for 24 hours. Then, the mixture was centrifuged (14,000 rpm, 4° C., 5 minutes), the supernatant was diluted 10 times with 0.01 N sodium hydroxide solution, and absorbance of the diluted mixture was measured at 500 nm. The amount of the dissolved compound was calculated on the basis of E1 cm1%180 (500 nm), and the amount of the compound binding to mannan was calculated.

Compound | Solubility PBS(+) [1] | Solubility PBS (−) [1] | MIC C. albicans A9540 (C. albicans A9540) [µg/mL] | MIC C. neoformans ATCC 90112 (C. neoformans ATCC 90112) [µg/mL] | MIC A. fumigatus IFO8866 (A. fumigatus IFO8866) [µg/mL] | Binding to mannan (Mannan binding test) | antifungal activity against C. albicans (in words) (C. albicans A9540) | antifungal activity against C. neoformans (in words) (C. neoformans ATCC 90112) | antifungal activity against A. fumigatus (in words) (A. fumigatus IFO8866)
COc1cc(O)c2c(c1)C(=O)c1c(cc3c(c1O)-c1c(cc(C)c(C(=O)N[C@H](CO)C(=O)O)c1O)[C@H](O[C@@H]1O[C@H](C)[C@H](N(C)C)[C@H](O[C@@H]4OC[C@@H](O)[C@H](O)[C@H]4O)[C@H]1O)[C@H]3O)C2=O [BMY28864, N,N′-dimethylpradimicin FA-2, reference compound] | 16,000 μg/ml | 14,000 μg/ml | 6.3 (≈ 7.23 µM) | 3.1 (≈ 3.56 µM) | 12.5 (≈ 14.4 µM) | 0.81 μg/1 μg of mannan |  |  | 
COc1cc(O)c2c(c1)C(=O)c1c(cc3c(c1O)-c1c(cc(C)c(C(=O)N[C@H](CO)C(=O)O)c1O)[C@H](O[C@@H]1O[C@H](C)[C@H](N(C)C)[C@H](O[C@H](OCC(=O)O)C(=O)O)[C@H]1O)[C@H]3O)C2=O [BMY28864-DCA] | 37,500 μg/ml | 37,500 μg/ml | 12.5 (≈ 14.4 µM) | 25 (≈ 28.7 µM) | >50 | 0.28 μg/1 μg of mannan | maintained | maintained | relatively low
COc1cc(O)c2c(c1)C(=O)c1c(cc3c(c1O)-c1c(cc(C)c(C(=O)N[C@H](C)C(=O)O)c1O)[C@H](O[C@@H]1O[C@H](C)[C@H](N(C)C)[C@H](O[C@@H]4OC[C@@H](O)[C@H](O)[C@H]4O)[C@H]1O)[C@H]3O)C2=O [N,N-Me2-PRM C, reference compound] | 950 µg/mL (≈ 1110 µM) | 1,900 μg/ml |  |  |  | 0.79 μg/1 μg of mannan |  |  | 
COc1cc(O)c2c(c1)C(=O)c1c(cc3c(c1O)-c1c(cc(C)c(C(=O)N[C@H](C)C(=O)O)c1O)[C@H](O[C@@H]1O[C@H](C)[C@H](N(C)C)[C@H](O[C@H](OCC(=O)O)C(=O)O)[C@H]1O)[C@H]3O)C2=O [N,N-Me2-PRM C-DCA] | 1,850 μg/ml | 1,400 μg/ml | 6.3 (≈ 7.37 µM) | 3.1 (≈ 3.63 µM) | 25 (≈ 29.2 µM) | ~0 μg/1 μg of mannan | almost equal to those of BMY28884 | almost equal to those of BMY28884 | lower than that of BMY28884
CN[C@@H]1[C@H](O[C@@H]2OC[C@@H](O)[C@H](O)[C@H]2O)[C@@H](O)[C@H](O[C@H]2c3cc(C)c(C(=O)N[C@H](C)C(=O)O)c(O)c3-c3c(cc4c(c3O)C(=O)c3cc(OC)cc(O)c3C4=O)[C@@H]2O)O[C@@H]1C [PRM A, Pradimicin (PRM) A, reference compound] | 68.5 µg/mL (≈ 81.5 µM) | 39.5 µg/mL (≈ 47 µM) |  |  |  | 0.89 μg/1 μg of mannan |  |  | 
CN[C@@H]1[C@H](O[C@H](OCC(=O)O)C(=O)O)[C@@H](O)[C@H](O[C@H]2c3cc(C)c(C(=O)N[C@H](C)C(=O)O)c(O)c3-c3c(cc4c(c3O)C(=O)c3cc(OC)cc(O)c3C4=O)[C@@H]2O)O[C@@H]1C [PRM A-DCA] | 2,300 μg/ml | 2,250 μg/ml | 6.3 (≈ 7.49 µM) | 12.5 (≈ 14.9 µM) | >50 | 0.02 μg/1 μg of mannan | maintained | maintained | relatively low
